Read-outs that look alike come from different tables or passages of the source.

The values that follow come from publication PMC11867202, “Phosphonoalamides Reveal the Biosynthetic Origin of Phosphonoalanine Natural Products and a Convergent Pathway for Their Diversification” (Angewandte Chemie (International ed. in English), 2024).

Assay [1] relates to PnaA. As to conditions: read-out: Km (apparent); co-substrate oxaloacetate; PLP.
The next assay concerns T1, PnaD.
T1 construct: recombinant, purified from E. coli; assayed coupled to PnaA
The assay can be described thus: coupled spectrophotometric assay, NADH oxidation; PnaD with PnaA. It counts as biochemical, Streptomyces sp. NRRL S-515. As to conditions: two-enzyme system, 5:1 PnaD to PnaA; co-substrate L-Asp; read-out: Km (apparent). An excerpt: coupled spectrophotometric assay, NADH oxidation; PnaD with PnaA on PnaD | apparent steady state parameters for the conversion of PEP to L-PnAla in reactions with PnaD

Assay [2] concerns T2, PnaA.
T2 construct: recombinant, purified from E. coli; PLP-dependent
The assay can be described thus: coupled spectrophotometric assay, NADH oxidation via PnPy reductase VlpB. It counts as biochemical, Streptomyces sp. NRRL S-515. As to conditions: reverse reaction; co-substrate oxaloacetate; PLP; varied substrate not explicitly named in main text; read-out: Km (apparent). From the text: coupled spectrophotometric assay, NADH oxidation via PnPy reductase VlpB on PnaA | the reverse reaction (transamination of PnAla and OAA to PnPy and Asp)

The test system of assay [3] is T2, PnaA. Description: coupled spectrophotometric assay, NADH oxidation via malate dehydrogenase. It counts as biochemical, Streptomyces sp. NRRL S-515. As to conditions: co-substrate L-Asp; PLP; read-out: Km (apparent).

As to `N[C@@H](CCC(=O)O)C(=O)O` [Glu], the Km – broadly, the substrate concentration at which the rate is half of its maximum – in the assay on PnaA [1] was 7500 ± 700 µM.
`C=C(OP(=O)(O)O)C(=O)O` [PEP]: in the assay on PnaD, the Km worked out at 546 ± 60 µM.
With `N[C@@H](CP(=O)(O)O)C(=O)O` [PnAla], in the assay with PnaA [2], the Km is 327 ± 40 µM.
As to `O=C(O)C(=O)CP(=O)(O)O` [PnPy], the Km in the assay on PnaA [3] came to 4.8 ± 0.4 µM.
The same measure, in the same setting: then `O=C(O)CCC(=O)C(=O)O` [αKG], with 899 ± 97 µM.
